Source: ChEMBL document CHEMBL4507317, “Data for DCP probe BAY-899” (2021)

Experiments:
[1] = target: Cyclin-dependent kinase 16 (Homo sapiens) (UniProt Q00536); settings: Compound concentration 1000.0 nM
[2] = target: Homeodomain-interacting protein kinase 3 (Homo sapiens) (UniProt Q9H422); settings: Compound concentration 1000.0 nM
[3] = tested on: Tyrosine-protein kinase ABL1 (Homo sapiens), P00519 [H396P]; settings: Compound concentration 1000.0 nM
[4] = target: Protein kinase C iota type (Homo sapiens) (UniProt P41743); settings: Compound concentration 1000.0 nM
[5] = target: Phosphatidylinositol 4,5-bisphosphate 3-kinase catalytic subunit beta isoform (Homo sapiens) (UniProt P42338); settings: Compound concentration 1000.0 nM
[6] = tested on: Receptor-type tyrosine-protein kinase FLT3 (Homo sapiens), P36888 [UNDEFINED MUTATION]; settings: Compound concentration 1000.0 nM
[7] = target: Casein kinase I isoform alpha (Homo sapiens) (UniProt P48729); settings: Compound concentration 1000.0 nM
Sequence of Casein kinase I isoform alpha (Homo sapiens) (P48729 2-337 limits assumed): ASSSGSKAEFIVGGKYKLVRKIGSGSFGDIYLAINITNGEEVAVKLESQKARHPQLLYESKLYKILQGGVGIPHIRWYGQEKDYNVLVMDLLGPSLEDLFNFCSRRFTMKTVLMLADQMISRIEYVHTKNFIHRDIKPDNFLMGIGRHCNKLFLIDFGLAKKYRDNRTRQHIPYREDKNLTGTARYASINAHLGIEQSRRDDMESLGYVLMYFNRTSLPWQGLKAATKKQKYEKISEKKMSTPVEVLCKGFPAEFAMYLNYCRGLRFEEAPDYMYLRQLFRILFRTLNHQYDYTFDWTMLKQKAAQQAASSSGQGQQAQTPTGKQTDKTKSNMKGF

[8] = target: Serine/threonine-protein kinase 38 (Homo sapiens) (UniProt Q15208); settings: Compound concentration 1000.0 nM
[9] = target: Vascular endothelial growth factor receptor 2 (Homo sapiens) (UniProt P35968); settings: Compound concentration 1000.0 nM
[10] = target: Activin receptor type-1 (Homo sapiens) (UniProt Q04771); settings: Compound concentration 1000.0 nM
[11] = target: Ribosomal protein S6 kinase alpha-5 (Homo sapiens) (UniProt O75582); settings: Compound concentration 1000.0 nM
[12] = target: Serine/threonine-protein kinase PAK 2 (Homo sapiens) (UniProt Q13177); settings: Compound concentration 1000.0 nM
[13] = target: Tyrosine-protein kinase Blk (Homo sapiens) (UniProt P51451); settings: Compound concentration 1000.0 nM
[14] = tested on: Mast/stem cell growth factor receptor Kit (Homo sapiens), P10721 [D816H]; settings: Compound concentration 1000.0 nM
[15] = target: Macrophage colony-stimulating factor 1 receptor (Homo sapiens) (UniProt P07333); settings: Compound concentration 1000.0 nM
Sequence of Macrophage colony-stimulating factor 1 receptor (Homo sapiens) (P07333 whole entry): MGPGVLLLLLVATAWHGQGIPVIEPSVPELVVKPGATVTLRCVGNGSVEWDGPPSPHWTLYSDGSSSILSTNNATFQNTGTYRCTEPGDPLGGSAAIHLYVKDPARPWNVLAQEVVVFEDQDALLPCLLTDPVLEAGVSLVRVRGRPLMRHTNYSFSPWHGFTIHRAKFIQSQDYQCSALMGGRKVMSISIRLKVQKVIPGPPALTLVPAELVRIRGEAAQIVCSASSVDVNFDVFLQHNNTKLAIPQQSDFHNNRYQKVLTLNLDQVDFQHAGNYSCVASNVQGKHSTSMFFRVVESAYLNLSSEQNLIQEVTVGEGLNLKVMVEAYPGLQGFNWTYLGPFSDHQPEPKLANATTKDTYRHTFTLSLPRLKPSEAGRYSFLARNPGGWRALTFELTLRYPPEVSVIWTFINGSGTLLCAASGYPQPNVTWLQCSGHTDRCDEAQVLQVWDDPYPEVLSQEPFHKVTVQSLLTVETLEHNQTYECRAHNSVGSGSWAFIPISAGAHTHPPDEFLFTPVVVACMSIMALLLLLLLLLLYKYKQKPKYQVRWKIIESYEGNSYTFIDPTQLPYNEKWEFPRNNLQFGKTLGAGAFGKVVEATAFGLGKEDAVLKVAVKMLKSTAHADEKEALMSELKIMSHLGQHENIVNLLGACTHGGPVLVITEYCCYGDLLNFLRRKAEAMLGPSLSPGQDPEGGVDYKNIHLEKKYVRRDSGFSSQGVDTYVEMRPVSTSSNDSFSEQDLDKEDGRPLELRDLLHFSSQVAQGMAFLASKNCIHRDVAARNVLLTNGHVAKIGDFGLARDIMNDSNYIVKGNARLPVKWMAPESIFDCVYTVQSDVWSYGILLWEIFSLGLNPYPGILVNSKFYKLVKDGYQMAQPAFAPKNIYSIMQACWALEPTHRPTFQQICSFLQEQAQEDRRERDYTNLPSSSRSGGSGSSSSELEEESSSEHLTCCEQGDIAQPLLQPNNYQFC

[16] = target: Cyclin-dependent kinase 14 (Homo sapiens) (UniProt O94921); settings: Compound concentration 1000.0 nM
[17] = target: Fibroblast growth factor receptor 2 (Homo sapiens) (UniProt P21802); settings: Compound concentration 1000.0 nM
[18] = target: Serine/threonine-protein kinase tousled-like 1 (Homo sapiens) (UniProt Q9UKI8); settings: Compound concentration 1000.0 nM
Sequence of Serine/threonine-protein kinase tousled-like 1 (Homo sapiens) (Q9UKI8 whole entry): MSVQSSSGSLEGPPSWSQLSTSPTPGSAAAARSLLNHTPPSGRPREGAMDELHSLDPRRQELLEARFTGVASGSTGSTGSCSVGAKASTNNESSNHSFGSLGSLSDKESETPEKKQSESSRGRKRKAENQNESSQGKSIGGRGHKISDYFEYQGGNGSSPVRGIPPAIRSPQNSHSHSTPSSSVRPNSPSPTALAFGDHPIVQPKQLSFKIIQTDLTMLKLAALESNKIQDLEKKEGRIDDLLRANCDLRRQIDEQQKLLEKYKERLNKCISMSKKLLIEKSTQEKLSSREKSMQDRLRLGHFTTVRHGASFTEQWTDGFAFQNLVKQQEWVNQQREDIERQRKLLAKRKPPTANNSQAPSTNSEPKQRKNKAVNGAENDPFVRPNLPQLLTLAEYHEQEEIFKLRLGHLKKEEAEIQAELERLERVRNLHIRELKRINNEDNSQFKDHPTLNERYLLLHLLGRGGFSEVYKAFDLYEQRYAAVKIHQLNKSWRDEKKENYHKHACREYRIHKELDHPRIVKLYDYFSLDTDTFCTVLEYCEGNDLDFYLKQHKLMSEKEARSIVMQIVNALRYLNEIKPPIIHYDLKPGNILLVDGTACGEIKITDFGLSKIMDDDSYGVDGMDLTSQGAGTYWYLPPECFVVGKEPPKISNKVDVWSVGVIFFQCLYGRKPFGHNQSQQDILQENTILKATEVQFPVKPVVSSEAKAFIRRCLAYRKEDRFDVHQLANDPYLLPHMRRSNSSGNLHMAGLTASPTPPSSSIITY

[19] = target: Ribosomal protein S6 kinase alpha-4 (Homo sapiens) (UniProt O75676); settings: Compound concentration 1000.0 nM
[20] = target: Histamine H2 receptor (Homo sapiens) (UniProt P25021); settings: Compound concentration 10.0 uM
[21] = target: Myosin light chain kinase family member 4 (Homo sapiens) (UniProt Q86YV6); settings: Compound concentration 1000.0 nM
Sequence of Myosin light chain kinase family member 4 (Homo sapiens) (Q86YV6 whole entry): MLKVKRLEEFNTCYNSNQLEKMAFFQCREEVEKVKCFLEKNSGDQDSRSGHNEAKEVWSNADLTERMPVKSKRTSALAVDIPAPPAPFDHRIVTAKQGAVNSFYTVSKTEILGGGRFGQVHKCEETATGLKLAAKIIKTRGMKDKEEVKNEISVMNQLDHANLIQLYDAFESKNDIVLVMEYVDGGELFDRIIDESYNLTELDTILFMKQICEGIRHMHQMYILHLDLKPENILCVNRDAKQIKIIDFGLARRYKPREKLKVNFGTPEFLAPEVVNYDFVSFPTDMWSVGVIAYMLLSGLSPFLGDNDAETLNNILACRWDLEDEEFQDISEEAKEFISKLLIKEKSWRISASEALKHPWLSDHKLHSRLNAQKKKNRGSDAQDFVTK

[22] = target: D(3) dopamine receptor (Homo sapiens) (UniProt P35462); settings: Compound concentration 10.0 uM
[23] = target: Serine/threonine-protein kinase 36 (Homo sapiens) (UniProt Q9NRP7); settings: Compound concentration 1000.0 nM
[24] = target: Dual specificity protein kinase CLK3 (Homo sapiens) (UniProt P49761); settings: Compound concentration 1000.0 nM
[25] = target: 5-hydroxytryptamine receptor 1D (Homo sapiens) (UniProt P28221); settings: Compound concentration 10.0 uM
[26] = target: Dual specificity tyrosine-phosphorylation-regulated kinase 1A (Homo sapiens) (UniProt Q13627); settings: Compound concentration 1000.0 nM
[27] = target: Discoidin domain-containing receptor 2 (Homo sapiens) (UniProt Q16832); settings: Compound concentration 1000.0 nM
[28] = target: Protein-tyrosine kinase 6 (Homo sapiens) (UniProt Q13882); settings: Compound concentration 1000.0 nM
[29] = target: Histamine H3 receptor (Homo sapiens) (UniProt Q9Y5N1); settings: Compound concentration 10.0 uM
[30] = target: Tyrosine-protein kinase JAK3 (Homo sapiens) (UniProt P52333); settings: Compound concentration 1000.0 nM
[31] = target: Serine/threonine-protein kinase Sgk2 (Homo sapiens) (UniProt Q9HBY8); settings: Compound concentration 1000.0 nM
[32] = target: Serine/threonine-protein kinase TBK1 (Homo sapiens) (UniProt Q9UHD2); settings: Compound concentration 1000.0 nM
Sequence of Serine/threonine-protein kinase TBK1 (Homo sapiens) (Q9UHD2 whole entry): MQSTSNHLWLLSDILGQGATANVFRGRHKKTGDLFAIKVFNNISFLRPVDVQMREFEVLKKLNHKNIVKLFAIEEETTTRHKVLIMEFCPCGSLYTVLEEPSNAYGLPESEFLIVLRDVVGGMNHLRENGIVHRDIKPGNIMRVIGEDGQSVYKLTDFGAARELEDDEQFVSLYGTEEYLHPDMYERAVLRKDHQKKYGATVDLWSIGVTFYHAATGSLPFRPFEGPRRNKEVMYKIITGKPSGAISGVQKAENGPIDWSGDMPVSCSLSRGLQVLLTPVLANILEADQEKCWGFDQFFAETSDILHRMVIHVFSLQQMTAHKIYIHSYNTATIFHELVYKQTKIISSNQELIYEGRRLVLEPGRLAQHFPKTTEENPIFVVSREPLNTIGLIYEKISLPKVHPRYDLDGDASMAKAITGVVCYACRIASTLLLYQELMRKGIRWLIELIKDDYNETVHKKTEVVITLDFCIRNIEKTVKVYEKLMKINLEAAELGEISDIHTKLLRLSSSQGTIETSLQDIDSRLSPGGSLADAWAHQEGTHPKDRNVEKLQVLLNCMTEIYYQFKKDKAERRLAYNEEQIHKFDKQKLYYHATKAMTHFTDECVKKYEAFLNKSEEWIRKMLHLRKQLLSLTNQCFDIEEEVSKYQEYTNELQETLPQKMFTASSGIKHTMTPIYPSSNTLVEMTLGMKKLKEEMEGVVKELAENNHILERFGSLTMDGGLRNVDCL

[33] = target: SRSF protein kinase 1 (Homo sapiens) (UniProt Q96SB4); settings: Compound concentration 1000.0 nM
[34] = target: Platelet-derived growth factor receptor beta (Homo sapiens) (UniProt P09619); settings: Compound concentration 1000.0 nM
[35] = tested on: Receptor-type tyrosine-protein kinase FLT3 (Homo sapiens), P36888 [N841I]; settings: Compound concentration 1000.0 nM
[36] = target: Serine/threonine-protein kinase WNK4 (Homo sapiens) (UniProt Q96J92); settings: Compound concentration 1000.0 nM
[37] = target: Serine/threonine-protein kinase MAK (Homo sapiens) (UniProt P20794); settings: Compound concentration 1000.0 nM
[38] = target: Mitogen-activated protein kinase kinase kinase kinase 3 (Homo sapiens) (UniProt Q8IVH8); settings: Compound concentration 1000.0 nM
[39] = target: Serine/threonine-protein kinase ULK1 (Homo sapiens) (UniProt O75385); settings: Compound concentration 1000.0 nM
[40] = target: Serine/threonine-protein kinase PknB (Mycobacterium tuberculosis) (UniProt P9WI81); settings: Compound concentration 1000.0 nM
Sequence of Serine/threonine-protein kinase PknB (Mycobacterium tuberculosis) (P9WI81 whole entry): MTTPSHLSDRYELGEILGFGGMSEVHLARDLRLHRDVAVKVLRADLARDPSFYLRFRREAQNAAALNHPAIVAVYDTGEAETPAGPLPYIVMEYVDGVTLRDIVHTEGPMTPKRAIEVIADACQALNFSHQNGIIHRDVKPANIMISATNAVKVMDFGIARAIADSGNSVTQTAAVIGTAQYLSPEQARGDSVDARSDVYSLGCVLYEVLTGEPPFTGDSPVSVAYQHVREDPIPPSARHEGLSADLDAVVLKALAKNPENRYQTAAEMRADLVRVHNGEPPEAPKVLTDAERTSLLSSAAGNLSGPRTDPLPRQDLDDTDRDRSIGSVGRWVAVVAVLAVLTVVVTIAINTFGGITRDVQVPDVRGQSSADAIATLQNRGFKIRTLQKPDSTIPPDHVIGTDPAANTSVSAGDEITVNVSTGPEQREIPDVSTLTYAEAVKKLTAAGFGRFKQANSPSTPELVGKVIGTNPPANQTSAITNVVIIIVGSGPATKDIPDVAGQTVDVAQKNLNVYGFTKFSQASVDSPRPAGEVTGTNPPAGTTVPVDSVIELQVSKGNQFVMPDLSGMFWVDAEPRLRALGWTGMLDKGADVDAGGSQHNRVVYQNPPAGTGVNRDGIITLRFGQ

[41] = target: MAP/microtubule affinity-regulating kinase 4 (Homo sapiens) (UniProt Q96L34); settings: Compound concentration 1000.0 nM
[42] = tested on: Epidermal growth factor receptor (Homo sapiens), P00533 [L858R,T790M]; settings: Compound concentration 1000.0 nM
[43] = target: Alpha-1D adrenergic receptor (Homo sapiens) (UniProt P25100); settings: Compound concentration 10.0 uM
[44] = target: 5-hydroxytryptamine receptor 1E (Homo sapiens) (UniProt P28566); settings: Compound concentration 10.0 uM
[45] = target: Phosphatidylinositol 4,5-bisphosphate 3-kinase catalytic subunit delta isoform (Homo sapiens) (UniProt O00329); settings: Compound concentration 1000.0 nM
Sequence of Phosphatidylinositol 4,5-bisphosphate 3-kinase catalytic subunit delta isoform (Homo sapiens) (O00329 whole entry, canonical isoform): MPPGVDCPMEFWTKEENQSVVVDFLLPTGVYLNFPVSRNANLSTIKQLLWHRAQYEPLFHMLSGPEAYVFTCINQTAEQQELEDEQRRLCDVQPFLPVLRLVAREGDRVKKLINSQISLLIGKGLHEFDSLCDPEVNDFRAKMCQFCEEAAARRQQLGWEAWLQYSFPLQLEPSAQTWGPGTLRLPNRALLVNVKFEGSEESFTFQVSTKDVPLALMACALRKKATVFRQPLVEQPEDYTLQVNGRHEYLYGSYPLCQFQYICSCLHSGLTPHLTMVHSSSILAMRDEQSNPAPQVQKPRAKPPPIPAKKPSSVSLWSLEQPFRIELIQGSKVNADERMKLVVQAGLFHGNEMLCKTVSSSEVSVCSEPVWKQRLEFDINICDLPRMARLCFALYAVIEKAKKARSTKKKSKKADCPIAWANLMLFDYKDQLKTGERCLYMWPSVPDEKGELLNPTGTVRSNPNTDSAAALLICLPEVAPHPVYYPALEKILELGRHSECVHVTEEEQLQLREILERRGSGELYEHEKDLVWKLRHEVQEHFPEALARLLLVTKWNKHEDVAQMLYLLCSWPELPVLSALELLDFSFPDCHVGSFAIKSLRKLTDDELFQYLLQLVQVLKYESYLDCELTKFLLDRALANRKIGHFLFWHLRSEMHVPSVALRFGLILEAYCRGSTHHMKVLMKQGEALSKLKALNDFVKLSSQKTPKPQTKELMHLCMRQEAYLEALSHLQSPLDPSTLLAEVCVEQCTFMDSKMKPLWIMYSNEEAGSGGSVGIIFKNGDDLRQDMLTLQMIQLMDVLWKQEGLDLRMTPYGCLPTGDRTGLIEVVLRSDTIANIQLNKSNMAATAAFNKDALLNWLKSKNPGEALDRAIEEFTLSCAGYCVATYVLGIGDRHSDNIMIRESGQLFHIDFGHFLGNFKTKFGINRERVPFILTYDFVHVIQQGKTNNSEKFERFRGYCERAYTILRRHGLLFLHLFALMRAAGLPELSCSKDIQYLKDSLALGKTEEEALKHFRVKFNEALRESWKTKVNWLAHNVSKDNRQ

O=C(Nc1ccc(Oc2ccc(F)cc2)cc1)N1CCc2ncccc2[C@H]1c1ccc(F)cc1 [BAY-897]
inactive: residual activity [1] 65% | residual activity [2] 92% | residual activity [3] 92% | residual activity [4] 100% | residual activity [5] 77% | residual activity [6] 93% | residual activity [7] 97% | residual activity [8] 99% | residual activity [9] 100% | residual activity [10] 96% | residual activity [11] 74% | residual activity [12] 52% | residual activity [13] 90% | residual activity [14] 89% | residual activity [15] 90% | residual activity [16] 94% | residual activity [17] 93% | residual activity [18] 100% | residual activity [19] 94% | inhibition [20] 7.29% | residual activity [21] 97% | inhibition [22] -2.66% | residual activity [23] 89% | residual activity [24] 82% | inhibition [25] 43.3% | residual activity [26] 95% | residual activity [27] 100% | residual activity [28] 100% | inhibition [29] 3.57% | residual activity [30] 100% | residual activity [31] 100% | residual activity [32] 81% | residual activity [33] 94% | residual activity [34] 100% | residual activity [35] 93% | residual activity [36] 85% | residual activity [37] 100% | residual activity [38] 90% | residual activity [39] 89% | residual activity [40] 86% | residual activity [41] 86% | residual activity [42] 71% | inhibition [43] 34% | inhibition [44] 1.61% | residual activity [45] 93%

O=C(Nc1cnc(Oc2ccc(F)cc2)nc1)N1CCc2ncccc2[C@@H]1c1ccc(F)cc1 [BAY-899]
inactive: residual activity [1] 75% | residual activity [2] 90% | residual activity [3] 100% | residual activity [4] 98% | residual activity [5] 84% | residual activity [6] 79% | residual activity [7] 85% | residual activity [8] 91% | residual activity [9] 88% | residual activity [10] 97% | residual activity [11] 74% | residual activity [12] 59% | residual activity [13] 80% | residual activity [14] 96% | residual activity [15] 78% | residual activity [16] 100% | residual activity [17] 98% | residual activity [18] 90% | residual activity [19] 91% | inhibition [20] 2.75% | residual activity [21] 88% | inhibition [22] -4.36% | residual activity [23] 91% | residual activity [24] 88% | inhibition [25] 4.38% | residual activity [26] 100% | residual activity [27] 100% | residual activity [28] 98% | inhibition [29] -8.41% | residual activity [30] 91% | residual activity [31] 79% | residual activity [32] 87% | residual activity [33] 100% | residual activity [34] 100% | residual activity [35] 88% | residual activity [36] 81% | residual activity [37] 100% | residual activity [38] 87% | residual activity [39] 88% | residual activity [40] 90% | residual activity [41] 91% | residual activity [42] 70% | inhibition [43] 8.01% | inhibition [44] -8.08% | residual activity [45] 100%
